Measured values: ChEMBL document CHEMBL1147101, “Development and persistence of antimicrobial resistance in Pseudomonas aeruginosa: a longitudinal observation in mechanically ventilated patients” (Antimicrob Agents Chemother, 2007)
The source made the active and inactive calls. The rule behind the calls is not given here.

Tests used:
Type in all cases: functional, organism-based
Conditions in all cases: Trachea
Pseudomonas aeruginosa [1] = experiment: Antimicrobial activity against Pseudomonas aeruginosa 19D9 tracheal isolates from mechanically ventilated chronic respiratory insufficiency patient
Pseudomonas aeruginosa [2] = experiment: Antimicrobial activity against Pseudomonas aeruginosa 3D10 tracheal isolates from mechanically ventilated chronic respiratory insufficiency patient
Pseudomonas aeruginosa [3] = experiment: Antimicrobial activity against Pseudomonas aeruginosa 15G2 tracheal isolates from mechanically ventilated chronic respiratory insufficiency patient
Pseudomonas aeruginosa [4] = experiment: Antimicrobial activity against Pseudomonas aeruginosa 29G8 tracheal isolates from mechanically ventilated chronic respiratory insufficiency patient
Pseudomonas aeruginosa [5] = experiment: Antimicrobial activity against Pseudomonas aeruginosa 65.38-3 tracheal isolates from mechanically ventilated tuberculosis patient
Pseudomonas aeruginosa [6] = experiment: Antimicrobial activity against Pseudomonas aeruginosa 29G7 tracheal isolates from mechanically ventilated chronic respiratory insufficiency patient
Pseudomonas aeruginosa [7] = experiment: Antimicrobial activity against Pseudomonas aeruginosa 19E2 tracheal isolates from mechanically ventilated chronic respiratory insufficiency patient
Pseudomonas aeruginosa [8] = experiment: Antimicrobial activity against Pseudomonas aeruginosa 22E3 tracheal isolates from mechanically ventilated chronic respiratory insufficiency patient
Pseudomonas aeruginosa [9] = experiment: Antimicrobial activity against Pseudomonas aeruginosa 3D1 tracheal isolates from mechanically ventilated chronic respiratory insufficiency patient
Pseudomonas aeruginosa [10] = experiment: Antimicrobial activity against Pseudomonas aeruginosa 19B3 tracheal isolates from mechanically ventilated chronic respiratory insufficiency patient
Pseudomonas aeruginosa [11] = experiment: Antimicrobial activity against Pseudomonas aeruginosa 19E9 tracheal isolates from mechanically ventilated chronic respiratory insufficiency patient
Pseudomonas aeruginosa [12] = experiment: Antimicrobial activity against Pseudomonas aeruginosa 5F8 tracheal isolates from mechanically ventilated chronic respiratory insufficiency patient
Pseudomonas aeruginosa [13] = experiment: Antimicrobial activity against Pseudomonas aeruginosa 13D11 tracheal isolates from mechanically ventilated chronic respiratory insufficiency patient
Pseudomonas aeruginosa [14] = experiment: Antimicrobial activity against Pseudomonas aeruginosa 22E1 tracheal isolates from mechanically ventilated chronic respiratory insufficiency patient
Pseudomonas aeruginosa [15] = experiment: Antimicrobial activity against Pseudomonas aeruginosa 65.38-1 tracheal isolates from mechanically ventilated tuberculosis patient
Pseudomonas aeruginosa [16] = experiment: Antimicrobial activity against Pseudomonas aeruginosa 10B3 tracheal isolates from mechanically ventilated chronic respiratory insufficiency patient
Pseudomonas aeruginosa [17] = experiment: Antimicrobial activity against Pseudomonas aeruginosa 9B5 tracheal isolates from mechanically ventilated chronic respiratory insufficiency patient
Pseudomonas aeruginosa [18] = experiment: Antimicrobial activity against Pseudomonas aeruginosa 65.36-3 tracheal isolates from mechanically ventilated tuberculosis patient
Pseudomonas aeruginosa [19] = experiment: Antimicrobial activity against Pseudomonas aeruginosa 10B1 tracheal isolates from mechanically ventilated chronic respiratory insufficiency patient
Pseudomonas aeruginosa [20] = experiment: Antimicrobial activity against Pseudomonas aeruginosa 3E2 tracheal isolates from mechanically ventilated chronic respiratory insufficiency patient
Pseudomonas aeruginosa [21] = experiment: Antimicrobial activity against Pseudomonas aeruginosa 8A2 tracheal isolates from mechanically ventilated chronic respiratory insufficiency patient
Pseudomonas aeruginosa [22] = experiment: Antimicrobial activity against Pseudomonas aeruginosa 5H6 tracheal isolates from mechanically ventilated chronic respiratory insufficiency patient
Pseudomonas aeruginosa [23] = experiment: Antimicrobial activity against Pseudomonas aeruginosa 12B2 tracheal isolates from mechanically ventilated chronic respiratory insufficiency patient
Pseudomonas aeruginosa [24] = experiment: Antimicrobial activity against Pseudomonas aeruginosa 12A7 tracheal isolates from mechanically ventilated chronic respiratory insufficiency patient
Pseudomonas aeruginosa [25] = experiment: Antimicrobial activity against Pseudomonas aeruginosa 22C5 tracheal isolates from mechanically ventilated chronic respiratory insufficiency patient
Pseudomonas aeruginosa [26] = experiment: Antimicrobial activity against Pseudomonas aeruginosa 2A9 tracheal isolates from mechanically ventilated tuberculosis patient
Pseudomonas aeruginosa [27] = experiment: Antimicrobial activity against Pseudomonas aeruginosa 19B6 tracheal isolates from mechanically ventilated chronic respiratory insufficiency patient
Pseudomonas aeruginosa [28] = experiment: Antimicrobial activity against Pseudomonas aeruginosa 65.36-2 tracheal isolates from mechanically ventilated tuberculosis patient
Pseudomonas aeruginosa [29] = experiment: Antimicrobial activity against Pseudomonas aeruginosa 2A5 tracheal isolates from mechanically ventilated tuberculosis patient
Pseudomonas aeruginosa [30] = experiment: Antimicrobial activity against Pseudomonas aeruginosa 65.33-4 tracheal isolates from mechanically ventilated tuberculosis patient
Pseudomonas aeruginosa [31] = experiment: Antimicrobial activity against Pseudomonas aeruginosa 13E1 tracheal isolates from mechanically ventilated chronic respiratory insufficiency patient
Pseudomonas aeruginosa [32] = experiment: Antimicrobial activity against Pseudomonas aeruginosa 65.68-2 tracheal isolates from mechanically ventilated tuberculosis patient
Pseudomonas aeruginosa [33] = experiment: Antimicrobial activity against Pseudomonas aeruginosa 65.33-2 tracheal isolates from mechanically ventilated tuberculosis patient
Pseudomonas aeruginosa [34] = experiment: Antimicrobial activity against Pseudomonas aeruginosa 12A3 tracheal isolates from mechanically ventilated chronic respiratory insufficiency patient
Pseudomonas aeruginosa [35] = experiment: Antimicrobial activity against Pseudomonas aeruginosa 15H5 tracheal isolates from mechanically ventilated chronic respiratory insufficiency patient
Pseudomonas aeruginosa [36] = experiment: Antimicrobial activity against Pseudomonas aeruginosa 65.68-3 tracheal isolates from mechanically ventilated tuberculosis patient
Pseudomonas aeruginosa [37] = experiment: Antimicrobial activity against Pseudomonas aeruginosa 16D5 tracheal isolates from mechanically ventilated chronic respiratory insufficiency patient
Pseudomonas aeruginosa [38] = experiment: Antimicrobial activity against Pseudomonas aeruginosa 2A7 tracheal isolates from mechanically ventilated tuberculosis patient
Pseudomonas aeruginosa [39] = experiment: Antimicrobial activity against Pseudomonas aeruginosa 1A9 tracheal isolates from mechanically ventilated tuberculosis patient
Pseudomonas aeruginosa [40] = experiment: Antimicrobial activity against Pseudomonas aeruginosa 65.68-4 tracheal isolates from mechanically ventilated tuberculosis patient
Pseudomonas aeruginosa [41] = experiment: Antimicrobial activity against Pseudomonas aeruginosa 19C7 tracheal isolates from mechanically ventilated chronic respiratory insufficiency patient
Pseudomonas aeruginosa [42] = experiment: Antimicrobial activity against Pseudomonas aeruginosa 8B11 tracheal isolates from mechanically ventilated chronic respiratory insufficiency patient
Pseudomonas aeruginosa [43] = experiment: Antimicrobial activity against Pseudomonas aeruginosa 1B9 tracheal isolates from mechanically ventilated tuberculosis patient
Pseudomonas aeruginosa [44] = experiment: Antimicrobial activity against Pseudomonas aeruginosa 2C1 tracheal isolates from mechanically ventilated tuberculosis patient
Pseudomonas aeruginosa [45] = experiment: Antimicrobial activity against Pseudomonas aeruginosa 22D9 tracheal isolates from mechanically ventilated chronic respiratory insufficiency patient
Pseudomonas aeruginosa [46] = experiment: Antimicrobial activity against Pseudomonas aeruginosa 65.36-1 tracheal isolates from mechanically ventilated tuberculosis patient
Pseudomonas aeruginosa [47] = experiment: Antimicrobial activity against Pseudomonas aeruginosa 29G6 tracheal isolates from mechanically ventilated chronic respiratory insufficiency patient
Pseudomonas aeruginosa [48] = experiment: Antimicrobial activity against Pseudomonas aeruginosa 2F6 tracheal isolates from mechanically ventilated tuberculosis patient
Pseudomonas aeruginosa [49] = experiment: Antimicrobial activity against Pseudomonas aeruginosa 22D6 tracheal isolates from mechanically ventilated chronic respiratory insufficiency patient
Pseudomonas aeruginosa [50] = experiment: Antimicrobial activity against Pseudomonas aeruginosa 2C2 tracheal isolates from mechanically ventilated tuberculosis patient
Pseudomonas aeruginosa [51] = experiment: Antimicrobial activity against Pseudomonas aeruginosa 65.68-1 tracheal isolates from mechanically ventilated tuberculosis patient
Pseudomonas aeruginosa [52] = experiment: Antimicrobial activity against Pseudomonas aeruginosa 22D2 tracheal isolates from mechanically ventilated chronic respiratory insufficiency patient
Pseudomonas aeruginosa [53] = experiment: Antimicrobial activity against Pseudomonas aeruginosa 2A3 tracheal isolates from mechanically ventilated tuberculosis patient
Pseudomonas aeruginosa [54] = experiment: Antimicrobial activity against Pseudomonas aeruginosa P21.21 tracheal isolates from mechanically ventilated tuberculosis patient
Pseudomonas aeruginosa [55] = experiment: Antimicrobial activity against Pseudomonas aeruginosa 3B1 tracheal isolates from mechanically ventilated tuberculosis patient
Pseudomonas aeruginosa [56] = experiment: Antimicrobial activity against Pseudomonas aeruginosa 24E5 tracheal isolates from mechanically ventilated chronic respiratory insufficiency patient
Pseudomonas aeruginosa [57] = experiment: Antimicrobial activity against Pseudomonas aeruginosa 65.33-1 tracheal isolates from mechanically ventilated tuberculosis patient
Pseudomonas aeruginosa [58] = experiment: Antimicrobial activity against Pseudomonas aeruginosa 2A2 tracheal isolates from mechanically ventilated tuberculosis patient
Pseudomonas aeruginosa [59] = experiment: Antimicrobial activity against Pseudomonas aeruginosa P21.23 tracheal isolates from mechanically ventilated tuberculosis patient

GENTAMICIN
Activity (Pseudomonas aeruginosa [1]): Active
Activity (Pseudomonas aeruginosa [2]): Active
Activity (Pseudomonas aeruginosa [3]): Active
Activity (Pseudomonas aeruginosa [4]): Active
Activity (Pseudomonas aeruginosa [5]): inactive
Activity (Pseudomonas aeruginosa [6]): Active
Activity (Pseudomonas aeruginosa [7]): Active
Activity (Pseudomonas aeruginosa [8]): Active
Activity (Pseudomonas aeruginosa [9]): Active
Activity (Pseudomonas aeruginosa [10]): Active
Activity (Pseudomonas aeruginosa [11]): Active
Activity (Pseudomonas aeruginosa [12]): Active
Activity (Pseudomonas aeruginosa [13]): Active
Activity (Pseudomonas aeruginosa [14]): Active
Activity (Pseudomonas aeruginosa [15]): inactive
Activity (Pseudomonas aeruginosa [16]): Active
Activity (Pseudomonas aeruginosa [17]): Active
Activity (Pseudomonas aeruginosa [18]): inactive
Activity (Pseudomonas aeruginosa [19]): Active
Activity (Pseudomonas aeruginosa [20]): Active
Activity (Pseudomonas aeruginosa [21]): Active
Activity (Pseudomonas aeruginosa [22]): Active
Activity (Pseudomonas aeruginosa [23]): Active
Activity (Pseudomonas aeruginosa [24]): Active
Activity (Pseudomonas aeruginosa [25]): Active
Activity (Pseudomonas aeruginosa [26]): inactive
Activity (Pseudomonas aeruginosa [27]): Active
Activity (Pseudomonas aeruginosa [28]): inactive
Activity (Pseudomonas aeruginosa [29]): Active
Activity (Pseudomonas aeruginosa [30]): Active
Activity (Pseudomonas aeruginosa [31]): Active
Activity (Pseudomonas aeruginosa [32]): inactive
Activity (Pseudomonas aeruginosa [33]): Active
Activity (Pseudomonas aeruginosa [34]): Active
Activity (Pseudomonas aeruginosa [35]): Active
Activity (Pseudomonas aeruginosa [36]): inactive
Activity (Pseudomonas aeruginosa [37]): Active
Activity (Pseudomonas aeruginosa [38]): inactive
Activity (Pseudomonas aeruginosa [39]): inactive
Activity (Pseudomonas aeruginosa [40]): Active
Activity (Pseudomonas aeruginosa [41]): Active
Activity (Pseudomonas aeruginosa [42]): Active
Activity (Pseudomonas aeruginosa [43]): inactive
Activity (Pseudomonas aeruginosa [44]): inactive
Activity (Pseudomonas aeruginosa [45]): Active
Activity (Pseudomonas aeruginosa [46]): inactive
Activity (Pseudomonas aeruginosa [47]): Active
Activity (Pseudomonas aeruginosa [48]): inactive

C[C@@H](O)[C@H]1C(=O)N2C(C(=O)O)=C(SCCNC=N)C[C@H]12
Activity (Pseudomonas aeruginosa [1]): Active
Activity (Pseudomonas aeruginosa [2]): Active
Activity (Pseudomonas aeruginosa [3]): Active
Activity (Pseudomonas aeruginosa [5]): inactive
Activity (Pseudomonas aeruginosa [49]): Active
Activity (Pseudomonas aeruginosa [6]): Active
Activity (Pseudomonas aeruginosa [50]): inactive
Activity (Pseudomonas aeruginosa [51]): inactive
Activity (Pseudomonas aeruginosa [7]): Active
Activity (Pseudomonas aeruginosa [52]): Active
Activity (Pseudomonas aeruginosa [8]): Active
Activity (Pseudomonas aeruginosa [9]): Active
Activity (Pseudomonas aeruginosa [10]): Active
Activity (Pseudomonas aeruginosa [53]): inactive
Activity (Pseudomonas aeruginosa [11]): Active
Activity (Pseudomonas aeruginosa [12]): Active
Activity (Pseudomonas aeruginosa [54]): Active
Activity (Pseudomonas aeruginosa [55]): inactive
Activity (Pseudomonas aeruginosa [13]): Active
Activity (Pseudomonas aeruginosa [14]): Active
Activity (Pseudomonas aeruginosa [15]): inactive
Activity (Pseudomonas aeruginosa [16]): Active
Activity (Pseudomonas aeruginosa [17]): Active
Activity (Pseudomonas aeruginosa [18]): inactive
Activity (Pseudomonas aeruginosa [56]): Active
Activity (Pseudomonas aeruginosa [19]): Active
Activity (Pseudomonas aeruginosa [20]): Active
Activity (Pseudomonas aeruginosa [21]): Active
Activity (Pseudomonas aeruginosa [22]): Active
Activity (Pseudomonas aeruginosa [23]): Active
Activity (Pseudomonas aeruginosa [24]): Active
Activity (Pseudomonas aeruginosa [25]): Active
Activity (Pseudomonas aeruginosa [26]): inactive
Activity (Pseudomonas aeruginosa [27]): Active
Activity (Pseudomonas aeruginosa [57]): inactive
Activity (Pseudomonas aeruginosa [28]): inactive
Activity (Pseudomonas aeruginosa [29]): Active
Activity (Pseudomonas aeruginosa [30]): inactive
Activity (Pseudomonas aeruginosa [31]): Active
Activity (Pseudomonas aeruginosa [32]): inactive
Activity (Pseudomonas aeruginosa [33]): inactive
Activity (Pseudomonas aeruginosa [34]): Active
Activity (Pseudomonas aeruginosa [58]): inactive
Activity (Pseudomonas aeruginosa [35]): Active
Activity (Pseudomonas aeruginosa [36]): inactive
Activity (Pseudomonas aeruginosa [37]): Active
Activity (Pseudomonas aeruginosa [38]): inactive
Activity (Pseudomonas aeruginosa [39]): inactive
Activity (Pseudomonas aeruginosa [40]): inactive
Activity (Pseudomonas aeruginosa [41]): Active
Activity (Pseudomonas aeruginosa [42]): Active
Activity (Pseudomonas aeruginosa [43]): inactive
Activity (Pseudomonas aeruginosa [59]): Active
Activity (Pseudomonas aeruginosa [44]): inactive
Activity (Pseudomonas aeruginosa [45]): Active
Activity (Pseudomonas aeruginosa [46]): inactive
Activity (Pseudomonas aeruginosa [47]): Active
Activity (Pseudomonas aeruginosa [48]): inactive
